According to publication PMC12638379, “An innovative approach to development of new pyrazolylquinolin-2-one hybrids as dual EGFR and BRAF^V600E inhibitors” (Molecular Diversity, 2025):
Read-outs that look alike come from different tables or passages of the source.

How the values were obtained:
NCI 60 cancer cell lines = assay: NCI anticancer screening over a panel of 60 cancer cells, single concentration 10 µM; format: cell-based, human; conditions: Homo sapiens, read-out: % Growth Inhibition (GI %)
Method in brief: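 Run under the NCI Compound Evaluation Branch protocol, each compound was tested once at 10 µM. The panel comprised 60 cancer cell lines of diverse tissue origin, including leukemia, lung, colon, CNS, renal, ovarian, breast and prostate.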

[1] = tested on: breast cancer (T47D) cell line; assay: MTT antiproliferative assay, T-47D
Method in brief: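 HOP-92, MOLT-4 and T-47D cells in DMEM/10% FBS/insulin exposed 24 h to serial 10-fold dilutions […]; MTT added 2–4 h, absorbance at 570 nm with 690 nm background subtraction. Percent viable cells gives IC50; GI50 is the average IC50 across the three lines.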

[2] = tested on: leukemia (MOLT-4) cell line; assay: MTT antiproliferative assay, MOLT-4; format: cell-based, human
Experimental: After 24 h of culture incubation and supernatants discarded.

EGFR = target: T1, EGFR (Homo sapiens, UniProt P00533); assay: EGFR inhibitory assay; format: biochemical; conditions: for %inh: EGFR, unit not given
T1 construct: EGFR cytoplasmic domain (EGFR-CD, amino acids 645–1186); His6 (N); made in house; host or cells: Sf-9 insect cells (baculovirus)

BRAF^V600E = BRAF^V600E (Homo sapiens, UniProt P15056, V600E); assay: BRAF^V600E inhibitory assay (B-Raf (V600E) Kinase Assay); format: biochemical; conditions: read-out: BRAF^V600E inhibition IC50 ± SEM
[3] = MTT cytotoxicity on normal cell line WI-38; conditions: human, WI-38 normal cells, % viability
normal cell line WI-38 = assay: MTT cytotoxicity on normal cell line WI-38

T1 sequence (P00533 669-1210): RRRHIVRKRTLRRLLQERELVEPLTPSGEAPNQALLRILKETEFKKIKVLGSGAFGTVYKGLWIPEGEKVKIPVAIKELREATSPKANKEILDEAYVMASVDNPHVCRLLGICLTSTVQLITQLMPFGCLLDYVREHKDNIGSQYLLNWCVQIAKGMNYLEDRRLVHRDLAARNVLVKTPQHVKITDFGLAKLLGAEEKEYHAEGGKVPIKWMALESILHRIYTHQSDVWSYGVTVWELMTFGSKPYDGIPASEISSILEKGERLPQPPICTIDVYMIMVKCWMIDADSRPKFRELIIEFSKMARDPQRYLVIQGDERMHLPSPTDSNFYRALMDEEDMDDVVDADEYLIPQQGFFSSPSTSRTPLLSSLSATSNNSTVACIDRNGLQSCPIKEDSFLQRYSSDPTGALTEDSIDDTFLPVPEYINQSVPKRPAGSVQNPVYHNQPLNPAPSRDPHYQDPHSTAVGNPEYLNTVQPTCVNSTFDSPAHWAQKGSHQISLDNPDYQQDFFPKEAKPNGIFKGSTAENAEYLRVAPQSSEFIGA
Chain of BRAF^V600E (P15056 whole entry V600E): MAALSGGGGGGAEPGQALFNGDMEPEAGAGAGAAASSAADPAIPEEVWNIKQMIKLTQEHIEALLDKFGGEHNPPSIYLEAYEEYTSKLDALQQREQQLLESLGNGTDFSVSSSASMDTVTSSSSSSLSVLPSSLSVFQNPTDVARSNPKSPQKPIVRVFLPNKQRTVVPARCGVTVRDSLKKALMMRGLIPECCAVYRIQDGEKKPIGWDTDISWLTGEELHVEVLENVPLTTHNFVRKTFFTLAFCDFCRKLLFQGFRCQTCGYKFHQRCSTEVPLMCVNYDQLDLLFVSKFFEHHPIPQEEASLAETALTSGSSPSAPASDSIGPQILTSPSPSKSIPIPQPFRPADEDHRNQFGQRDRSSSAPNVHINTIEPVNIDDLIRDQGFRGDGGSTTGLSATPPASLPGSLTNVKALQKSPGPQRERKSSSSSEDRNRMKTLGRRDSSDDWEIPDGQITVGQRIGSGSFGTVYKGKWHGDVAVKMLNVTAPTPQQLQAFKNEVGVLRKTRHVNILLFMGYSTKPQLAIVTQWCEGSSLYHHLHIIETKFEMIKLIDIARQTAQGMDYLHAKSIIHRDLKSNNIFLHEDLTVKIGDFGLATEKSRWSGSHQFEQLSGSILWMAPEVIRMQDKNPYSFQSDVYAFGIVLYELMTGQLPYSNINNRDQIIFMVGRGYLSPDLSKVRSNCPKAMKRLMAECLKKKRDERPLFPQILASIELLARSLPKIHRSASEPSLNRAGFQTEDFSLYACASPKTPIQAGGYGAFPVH

## C/C(=N\Nc1ccc(C(=O)O)cc1)c1cnn(-c2cc(=O)[nH]c3ccc(C)cc23)c1C [Compound 4g, (E)-4-(2-(1-(5-methyl-1-(6-methyl-2-oxo-1,2-dihydroquinolin-4-yl)-1H-pyrazol-4-yl)ethylidene)hydrazineyl)benzoic acid]
NCI 60 cancer cell lines; 786-0, Renal cancer 786-0, 10 μM
  inhibition at 10 µM: 6.84%
NCI 60 cancer cell lines; A498, Renal cancer A498, 10 μM
  inhibition at 10 µM: < 5%
NCI 60 cancer cell lines; A549, Non-small cell lung cancer A549/ATCC, 10 μM
  inhibition at 10 µM: < 5%
NCI 60 cancer cell lines; ACHN, Renal cancer ACHN, 10 μM
  inhibition at 10 µM: < 5%
NCI 60 cancer cell lines; BT-549, Breast cancer BT-549, 10 μM
  inhibition at 10 µM: 11.6%
NCI 60 cancer cell lines; CAKI-1, Renal cancer CAKI-1, 10 μM
  inhibition at 10 µM: 10.3%
NCI 60 cancer cell lines; CCRF-CEM, Leukemia CCRF-CEM, 10 μM
  inhibition at 10 µM: 6.98%
NCI 60 cancer cell lines; DU-145, Prostate cancer DU-145, 10 μM
  inhibition at 10 µM: < 5%
NCI 60 cancer cell lines; EKVX, Non-small cell lung cancer EKVX, 10 μM
  inhibition at 10 µM: 7.01%
NCI 60 cancer cell lines; HCC 2998, Colon cancer HCC-2998, 10 μM
  inhibition at 10 µM: < 5%
NCI 60 cancer cell lines; HL-60, Leukemia HL-60(TB), 10 μM
  inhibition at 10 µM: < 5%
NCI 60 cancer cell lines; HOP-62, Non-small cell lung cancer HOP-62, 10 μM
  inhibition at 10 µM: 6.86%
NCI 60 cancer cell lines; HOP-92, Non-small cell lung cancer HOP-92, 10 μM
  inhibition at 10 µM: 93.9%
NCI 60 cancer cell lines; HT-29, Colon cancer HT29, 10 μM
  inhibition at 10 µM: < 5%
NCI 60 cancer cell lines; Hs-578T, Breast cancer HS 578T, 10 μM
  inhibition at 10 µM: 7.48%
NCI 60 cancer cell lines; IGROV-1, Ovarian cancer IGROV1, 10 μM
  inhibition at 10 µM: < 5%
NCI 60 cancer cell lines; K562, Leukemia K-562, 10 μM
  inhibition at 10 µM: < 5%
NCI 60 cancer cell lines; LOX IMVI, Melanoma LOX IMVI, 10 μM
  inhibition at 10 µM: 5.11%
NCI 60 cancer cell lines; Leukemia SR, 10 μM
  inhibition at 10 µM: 11.4%
NCI 60 cancer cell lines; MCF7, Breast cancer MCF7, 10 μM
  inhibition at 10 µM: 9.62%
NCI 60 cancer cell lines; MDA-MB-231, Breast cancer MDA-MB-231/ATCC, 10 μM
  inhibition at 10 µM: 8.94%
NCI 60 cancer cell lines; MDA-MB-435, Melanoma MDA-MB-435, 10 μM
  inhibition at 10 µM: < 5%
NCI 60 cancer cell lines; MDA-MB-468, Breast cancer MDA-MB-468, 10 μM
  inhibition at 10 µM: 16.8%
NCI 60 cancer cell lines; Melanoma MALM-3M, 10 μM
  inhibition at 10 µM: 16.7%
NCI 60 cancer cell lines; NCI-H23, Non-small cell lung cancer NCI-H23, 10 μM
  inhibition at 10 µM: < 5%
NCI 60 cancer cell lines; NCI-H226, Non-small cell lung cancer NCI-H226, 10 μM
  inhibition at 10 µM: 9.91%
NCI 60 cancer cell lines; NCI-H322M, Non-small cell lung cancer NCI-H322M, 10 μM
  inhibition at 10 µM: < 5%
NCI 60 cancer cell lines; NCI-H460, Non-small cell lung cancer NCI-H460, 10 μM
  inhibition at 10 µM: < 5%
NCI 60 cancer cell lines; NCI-H522, Non-small cell lung cancer NCI-H522, 10 μM
  inhibition at 10 µM: 10.6%
NCI 60 cancer cell lines; NCI/ADR-RES, Ovarian cancer NCI/ADR-RES, 10 μM
  inhibition at 10 µM: < 5%
NCI 60 cancer cell lines; OVCAR-4, Ovarian cancer OVCAR-4, 10 μM
  inhibition at 10 µM: 5.43%
NCI 60 cancer cell lines; OVCAR-8, Ovarian cancer OVCAR-8, 10 μM
  inhibition at 10 µM: < 5%
NCI 60 cancer cell lines; Prostate cancer PC-3, 10 μM
  inhibition at 10 µM: 11.2%
NCI 60 cancer cell lines; RPMI-8226, Leukemia RPMI-8226, 10 μM
  inhibition at 10 µM: 14.9%
NCI 60 cancer cell lines; RXF 393, Renal cancer RXF 393, 10 μM
  inhibition at 10 µM: 6.27%
NCI 60 cancer cell lines; SF-539, CNS Cancer SF-539, 10 μM
  inhibition at 10 µM: < 5%
NCI 60 cancer cell lines; SK-MEL-2, Melanoma SK-MEL-2, 10 μM
  inhibition at 10 µM: < 5%
NCI 60 cancer cell lines; SK-MEL-28, Melanoma SK-MEL-28, 10 μM
  inhibition at 10 µM: < 5%
NCI 60 cancer cell lines; SK-OV-3, Ovarian cancer SK-OV-3, 10 μM
  inhibition at 10 µM: 5.67%
NCI 60 cancer cell lines; SN12C, Renal cancer SN12C, 10 μM
  inhibition at 10 µM: 7.44%
NCI 60 cancer cell lines; SNB-75, CNS Cancer SNB-75, 10 μM
  inhibition at 10 µM: 8.08%
NCI 60 cancer cell lines; TK-10, Renal cancer TK-10, 10 μM
  inhibition at 10 µM: < 5%
NCI 60 cancer cell lines; U-251, CNS Cancer U251, 10 μM
  inhibition at 10 µM: < 5%
NCI 60 cancer cell lines; UACC-62, Melanoma UACC-62, 10 μM
  inhibition at 10 µM: 8.46%
NCI 60 cancer cell lines; UACC-257, Melanoma UACC-257, 10 μM
  inhibition at 10 µM: < 5%
NCI 60 cancer cell lines; UO-31, Renal cancer UO-31, 10 μM
  inhibition at 10 µM: 32.1%
[1]; Homo sapiens, T47D, T-47D, 0.4uM (log conc. -0.41)
  viability at 0.4 µM: 68.5%
[1]; Homo sapiens, T47D, T-47D, 1.6uM (log conc. 0.19)
  viability at 1.6 µM: 61.7%
[1]; Homo sapiens, T47D, T-47D, 6.3uM (log conc. 0.8)
  viability at 6.3 µM: 55%
[1]; Homo sapiens, T47D, T-47D, 25uM (log conc. 1.4)
  viability at 25 µM: 44.6%
[1]; Homo sapiens, T47D, T-47D, 100uM (log conc. 2)
  viability at 100 µM: 34%
[1]; Homo sapiens, T47D, read-out: Antiproliferative activity IC50 ± SEM, T-47D, MTT
  IC50: 9.71 ± 0.34 µM
[1]; T-47D, 0.4uM (log conc. -0.41), listed as Ws7, 0.4 µM
  % viability: 68.49%
[1]; T-47D, 1.6uM (log conc. 0.19), listed as Ws7, 1.6 µM
  % viability: 61.66%
[1]; T-47D, 6.3uM (log conc. 0.8), listed as Ws7, 6.3 µM
  % viability: 55.01%
[1]; T-47D, 25uM (log conc. 1.4), listed as Ws7, 25 µM
  % viability: 44.58%
[1]; T-47D, 100uM (log conc. 2), listed as Ws7, 100 µM
  % viability: 33.98%
[2]; Homo sapiens, MOLT-4, MOLT-4, MTT, 0.4uM
  viability at 0.4 µM: 68.9%
[2]; Homo sapiens, MOLT-4, MOLT-4, MTT, 1.6uM
  viability at 1.6 µM: 54.8%
[2]; Homo sapiens, MOLT-4, MOLT-4, MTT, 6.3uM
  viability at 6.3 µM: 48.2%
[2]; Homo sapiens, MOLT-4, MOLT-4, MTT, 25uM
  viability at 25 µM: 42.4%
[2]; Homo sapiens, MOLT-4, MOLT-4, MTT, 100uM
  viability at 100 µM: 35.3%
[2]; Homo sapiens, MOLT-4, MTT, read-out: Antiproliferative activity IC50 ± SEM, MOLT-4
  IC50: 6.17 ± 0.25 µM
[2]; MOLT-4, MTT, 1.6uM, listed as Ws7, 1.6 µM
  % viability: 54.85%
[2]; MOLT-4, MTT, 6.3uM, listed as Ws7, 6.3 µM
  % viability: 48.2%
[2]; MOLT-4, MTT, 25uM, listed as Ws7, 25 µM
  % viability: 42.37%
[2]; MOLT-4, MTT, 100uM, listed as Ws7, 100 µM
  % viability: 35.35%
EGFR; conc 0.01 (log -2)
  %inh: 21%
EGFR; conc 0.1 (log -1)
  %inh: 44.2%
EGFR; conc 1 (log 0)
  %inh: 71.4%
EGFR; conc 10 (log 1)
  %inh: 86.3%
EGFR; conc 100 (log 2)
  %inh: 94.5%
EGFR; read-out: EGFR inhibition IC50 ± SEM
  IC50: 0.194 ± 0.007 µM
BRAF^V600E
  IC50: 0.194 ± 0.008 µM
[3]; WI38, 0.4uM (log conc. -0.41)
  viability at 24 h, 0.4 µM: 80.4%
[3]; WI38, 1.6uM (log conc. 0.19)
  viability at 24 h, 1.6 µM: 70.2%
[3]; WI38, 6.3uM (log conc. 0.8)
  viability at 24 h, 6.3 µM: 62.8%
[3]; WI38, 25uM (log conc. 1.4)
  viability at 24 h, 25 µM: 51.6%
[3]; WI38, 100uM (log conc. 2)
  viability at 24 h, 100 µM: 44.1%
Normal cell line WI-38; Homo sapiens, read-out: Antiproliferative activity IC50 ± SEM
  IC50: 37.6 ± 1.5 µM
Normal cell line WI-38; WI38, 0.4uM (log conc. -0.41), listed as Ws7, 0.4 µM
  % viability: 80.43%
Normal cell line WI-38; WI38, 1.6uM (log conc. 0.19), listed as Ws7, 1.6 µM
  % viability: 70.19%
Normal cell line WI-38; WI38, 6.3uM (log conc. 0.8), listed as Ws7, 6.3 µM
  % viability: 62.8%
Normal cell line WI-38; WI38, 25uM (log conc. 1.4), listed as Ws7, 25 µM
  % viability: 51.55%
Normal cell line WI-38; WI38, 100uM (log conc. 2), listed as Ws7, 100 µM
  % viability: 44.1%
